Like-named read-outs stand apart in the source and are kept apart here.
Tested on: IL-1β production in PMA-differentiated THP-1 cells
Assay: IL-1β production in PMA-differentiated THP-1 cells stimulated with gramicidin (hTHP-1 assay, 2% fetal bovine serum; Procedures 1-3)
Format: cell-based, human
In short: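 PMA-primed THP-1 cells (20 ng/ml PMA, 16-18 h) in RPMI with 2% FBS were pre-incubated with compounds for 1 h, from 100 μM downward in 3-fold steps (0.37% DMSO final), then stimulated with 5 μM gramicidin for 2 h. IL-1β in the supernatant was quantified by HTRF.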

[1] = hTHP-1 assay containing 2% fetal bovine serum, Table B2, class symbols, read-out: IC50
[2] = Homo sapiens, THP-1, hTHP-1 assay containing 2% fetal bovine serum, Table B2, class symbols, read-out: IC50
[3] = Table B3, hTHP-1 assay containing 2% fetal bovine serum, gramicidin stimulation, IL-1β readout, read-out: hTHP-1 IC50
[4] = Table B1, hTHP-1 assay containing 2% fetal bovine serum, gramicidin stimulation, IL-1β readout, read-out: hTHP-1 IC50 (average)

In the case of `CC(C)c1cc(S(N)(=O)=NC(=O)Nc2c3c(cc4c2CCC4)CCC3)c(F)cn1` (single isomer, unassigned) [Example 555, (R) or (S)-5-fluoro-N′-((1,2,3,5,6,7-hexahydro-s-indacen-4-yl)carbamoyl)-2-isopropylpyridine-4-sulfonimidamide], the IC50 [1] is reported as 200 to 1000 nM.
`C[C@@](O)(CO)c1ncc([S@](N)(=O)=NC(=O)Nc2c3c(cc4c2CC4)CCC3)s1` [Compound 919a] showed an IC50 [2] of 200 to 1000 nM.
`CC(O)(CO)c1ncc(S(N)(=O)=NC(=O)Nc2c3c(c(C#N)c4c2CCC4)CCC3)s1` (single isomer, unassigned) [Example 634] was tested, and the IC50 [1] was 200 to 1000 nM.
`CN(C)C(c1ccc(S(N)(=O)=NC(=O)Nc2c3c(cc4c2CCC4)CCC3)cc1)C(F)(F)F` (single isomer, unassigned) [Example 667, (S,R) or (R,R)-4-(1-(dimethylamino)-2,2,2-trifluoroethyl)-N′-((1,2,3,5,6,7-hexahydro-s-indacen-4-yl)carbamoyl) benzenesulfonimidamide] showed an IC50 [1] of 200 to 1000 nM.
`NS(=O)(=NC(=O)Nc1c2c(cc3c1CCC3)CCC2)c1cc2c(s1)COCC2` (single isomer, unassigned) [Example 694, (S) or (R)-N′-((1,2,3,5,6,7-hexahydro-s-indacen-4-yl)carbamoyl)-4,7-dihydro-5H-thieno[2,3-c]pyran-2-sulfonimidamide] was tested, and the IC50 [1] was 5000 to 30000 nM.
Work on `CN1CCC[C@@H](c2ccc([S@@](N)(=O)=NC(=O)Nc3c4c(cc5c3CC5)CCC4)c(F)c2)C1` [Compound 911d] yielded an IC50 [2] of 1000 to 5000 nM.
Work on `CC(NC1CCC1)c1ccc(S(N)(=O)=NC(=O)Nc2c3c(cc4c2CC4)CCC3)c(F)c1` (centres unmarked) [Example 846, (R/S, S)-4-(1-(cyclobutylamino)ethyl)-2-fIuoro-N′-((2,4,5,6-tetrahydro-1H-cyclobuta[f]inden-3-yl)carbamoyl)benzenesulfonimidamide] yielded an IC50 [3] of 1000 to 5000 nM.
For `COc1cc(CN(C)C)ccc1S(N)(=O)=NC(=O)Nc1c2c(cc3c1CCC3)CCC2` (single isomer, unassigned) [Example 606, (R) or (S)-4-((dimethylamino)methyl)-N′-((1,2,3,5,6,7-hexahydro-s-indacen-4-yl)carbamoyl)-2-methoxybenzene-sulfonimidamide], the IC50 [2] was 200 to 1000 nM.
Work on `CC(CO)(CO)c1ncc(S(N)(=O)=NC(=O)Nc2c3c(cc4c2CCC4)CCC3)s1` (centres unmarked) [Example 756, 2-(1,3-Dihydroxy-2-methylpropan-2-yl)-N′-((1,2,3,5,6,7-hexahydro-s-indacen-4-yl)carbamoyl)thiazole-5-sulfonimidamide] yielded an IC50 (Homo sapiens, THP-1, Table B3, hTHP-1 assay containing 2% fetal bovine serum, gramicidin stimulation, IL-1β readout, read-out: hTHP-1 IC50) of 40 to 200 nM.
For `CC(C)(O)c1csc(S(N)(=O)=NC(=O)Nc2c3c(cc4c2CC4)CCC3)c1` (single isomer, unassigned) [Example 560, (R) or (S)-4-(2-hydroxypropan-2-N′-((2,4,5,6-tetrahydro-1H-cyclobuta[f]inden-3 - y])carbamoyl) thiophene-2-sulfonimidamide], the IC50 [1] was 8 to 40 nM.
`CC(OC(F)F)c1ccc(S(N)(=O)=NC(=O)Nc2c3c(cc4c2CCC4)CCC3)cc1` (single isomer, unassigned) [Example 643] was tested, and the IC50 (Homo sapiens, THP-1, hTHP-1 assay containing 2% fetal bovine serum, Table B2, given as bound, read-out: IC50) was over 30000 nM.
For `CC(C)(O)c1cnc(S(N)(=O)=NC(=O)Nc2c3c(cc4c2C(O)CC4)CCC3)s1` (single isomer, unassigned) [Example 652, (R,R) or (R,S)-N′-((3-hydroxy-1,2,3,5,6,7-hexahydro-s-indacen-4-yl)carbamoyl)-5-(2-hydroxypropan-2-yl)thiazole-2-sulfonimidamide], the IC50 [1] was 1000 to 5000 nM.
Compound `CN1CCCC(c2ccc(S(N)(=O)=NC(=O)Nc3c4c(cc5c3CC5)CCC4)c(F)c2)C1` (single isomer, unassigned) [Example 861, (S, S) or (R, S)-2-fluoro-4-(1-methylpiperidin-3-yl)-N′-((2,4,5,6-tetrahydro-1H-cyclobuta[f]inden-3-yl)carbamoyl)benzenesulfonimidamide] has an IC50 [3] of over 30000 nM.
Work on `CC(C)(O)c1nc(S(N)(=O)=NC(=O)Nc2c3c(cc4c2CCC4)CCC3)cs1` (single isomer, unassigned) [Example 557, (R) or (S)-N′-((1,2,3,5,6,7-hexahydro-s-indacen-4-yl)cartoamoyl)-2-(2-hydroxypropan-2-yl)thiazole-4-sulfoni midamide] yielded an IC50 [1] of 40 to 200 nM.
For `CC(C)(C)OC(=O)NC[C@@](C)(O)c1ncc(S(N)(=O)=NC(=O)Nc2c3c(cc4c2CCC4)CCC3)s1` (stereo partly drawn) [Example 676, Tert-butyl ((2R)-2-(5-(N′-((1,2,3,5,6,7-hexahydro-s-indacen-4-yl)carbamoyl)sulfamidimidoyl)thiazol-2-yl)-2-hydroxypropyl)carbamate], the IC50 [2] was 40 to 200 nM.
`CC(C)(O)c1cc(F)c(S(N)(=O)=NC(=O)Nc2c3c(cc4c2CC4)CCC3)s1` (single isomer, unassigned) [Example 432] showed an IC50 [1] of 8 to 40 nM.
With `CC(C)(O)c1ccc(S(N)(=O)=NC(=O)Nc2c3c(cc4c2C(=O)CC4)CCC3)cn1` (centres unmarked) [Example 469, 6-(2-Hydroxypropan-2-yl)-N′-((3-oxo-1,2,3,5,6,7-hexahydro-s-indacen-4-yl)carbamoyl)pyridine-3-sulfonimidamide] the IC50 [2] was 1000 to 5000 nM.
Compound `NS(=O)(=NC(=O)Nc1c2c(cc3c1CC3)CCC2)c1nn(C(F)F)cc1F` (single isomer, unassigned) [Example 840, (S) or (R)-1-(difluoromethyl)-4-fluoro-N′-((2,4,5,6-tetrahydro-1H-cyclobuta[f]inden-3-yl)carbamoyl)-1H-pyrazole-3-sulfonimidamide] has an IC50 [3] of 1000 to 5000 nM.
With `CNCC1(c2ccc(S(N)(=O)=NC(=O)Nc3c4c(cc5c3CCC5)CCC4)c(F)c2)CC1` (single isomer, unassigned) [Example 528, (R) or (S)-2-fluoro-N′-((1,2,3,5,6,7-hexahydro-s-indacen-4-yl)carbamoyl)-4-(1-((methylamino)methyl)cyclopropyl) benzenesulfonimidamide] the IC50 [1] was 200 to 1000 nM.
In the case of `N[S@](=O)(=NC(=O)Nc1c2c(cc3c1CCC3)CCC2)c1ccc([C@@H]2CCCN2)s1` [Compound 921d], the IC50 [2] is reported as 200 to 1000 nM.
`CNCc1cc(F)c(S(N)(=O)=NC(=O)Nc2c3c(cc4c2CCC4)CCC3)s1` (single isomer, unassigned) [Example 571, (S) or (R)-3-fluoro-N′-((1,2,3,5,6,7-hcxahydro-s-indacen-4-yl)carbamoyl)-5-((methylamino)methyl) thiophene-2-sulfonimidamide] showed an IC50 [1] of 200 to 1000 nM.
Work on `N[S@](=O)(=NC(=O)Nc1c2c(cc3c1CCC3)CCC2)c1ccc([C@H]2CCCN2)s1` [Compound 921b] yielded an IC50 [2] of 200 to 1000 nM.
`CC(c1ccc(S(N)(=O)=NC(=O)Nc2c3c(cc4c2CCC4)CCC3)cc1)N(C)C` (single isomer, unassigned) [Example 372, (R) or (S)-4-(1-(dimethyl-amino)ethyl)-N′-((1,2,3,5,6,7-hexahydro-s-indacen-4-yl)carbamoyl)-benzenesulfonimidamide] was tested, and the IC50 [4] was 40 to 200 nM.
For `NS(=O)(=NC(=O)Nc1c2c(cc3c1CCC3)CCC2)c1ccc(C2CCCC2)nc1` (centres unmarked) [Example 483, 6-Cyclopentyl-N′-((1,2,3,5,6,7-hexahydro-s-indacen-4-yl)carbamoyl)pyridine-3-sulfonimidamide], the IC50 [2] was 1000 to 5000 nM.
In the case of `C[C@](O)(CO)c1ncc([S@](N)(=O)=NC(=O)Nc2c3c(cc4c2CC4)CCC3)s1` [Compound 919d], the IC50 [2] is reported as 200 to 1000 nM.
Compound `CC(C)(O)c1ccc(S(N)(=O)=NC(=O)Nc2c3c(cc4c2C(=O)CC4)CCC3)cn1` (single isomer, unassigned) [Example 831, (S) or (R)-6-(2-hydroxypropan-2-yl)-N′-((3-oxo-1,2,3,5,6,7-hexahydro-s-indacen-4-yl)carbamoyl)pyridine-3-sulfonimidamide] has an IC50 [3] of over 30000 nM.
With `CN[C@H](c1ccc(S(N)(=O)=NC(=O)Nc2c3c(cc4c2CC4)CCC3)s1)C1CC1` (single isomer, unassigned) [Example 866, (S, R) or (R, R)-5-(cyclopropyl(methylamino)methyl)-N′-((2,4,5,6-tetrahydro-1H-cyclobuta[f]inden-3-yl)carbamoyl)thiophene-2-sulfonimidamide] the IC50 [3] was 8 to 40 nM.
Work on `CC(C)(O)c1cc(C#N)cc(S(N)(=O)=NC(=O)Nc2c3c(c(C#N)c4c2CCC4)CCC3)c1` (single isomer, unassigned) [Example 579, (S) or (R)-3-cyano-N′-((8-cyano-1,2,3,5,6,7-hexahydro-5-indacen-4-yl)carbamoyl)-5-(2-hydroxypropan-2-yl) benzenesulfonimidamide] yielded an IC50 [1] of 5000 to 30000 nM.
`CC(C)(O)c1ncc([S@](N)(=O)=NC(=O)Nc2cc(CCCl)cc3c2CCC3)s1` [Example 514, (R)-N′-((6-(2-chloroethyl)-2,3-dihydro-1H-inden-4-yl)carbamoyl)-2-(2-hydroxypropan-2-yl)thiazole-5-sulfonimidamide] was tested, and the IC50 [2] was 1000 to 5000 nM.
For `CN(C)C(C)(C)c1ccc(S(N)(=O)=NC(=O)Nc2c3c(cc4c2CCC4)CCC3)cc1` (single isomer, unassigned) [Example 361, (R) or (S)-4-(2-(dimethyl-amino)propan-2-yl)-N′-((1,2,3,5,6,7-hexahydro-s-indacen-4-yl)carbamoyl)-benzenesulfonimidamide], the IC50 [4] was 40 to 200 nM.
`CC(C)(O)c1csc(S(N)(=O)=NC(=O)Nc2c3c(cc4c2CC4)CCC3)c1` (single isomer, unassigned) [Example 561, (S) or (R)-4-(2-hydroxypropan-2-N′-((2,4,5,6-tetrahydro-1H-cyclobuta[f]inden-3 - y])carbamoyl) thiophene-2-sulfonimidamide] gave an IC50 [1] of 200 to 1000 nM.
In the case of `Cc1oc(S(N)(=O)=NC(=O)Nc2c3c(cc4c2CCC4C)CCC3)cc1C(C)(C)O` (single isomer, unassigned) [Example 125], the IC50 (Homo sapiens, THP-1, Table B1, hTHP-1 assay containing 2% fetal bovine serum, gramicidin stimulation, IL-1β readout, read-out: hTHP-1 IC50 (average)) is reported as 40 to 200 nM.

Reference: US20230051589A1, “COMPOUNDS AND COMPOSITIONS FOR TREATING CONDITIONS ASSOCIATED WITH NLRP ACTIVITY” (Novartis AG, priority 2018, published 2023)
